These results are taken from patent US11529350B2, “Tyrosine kinase non-receptor 1 (TNK1) inhibitors and uses thereof” (Sumitomo Pharma Oncology, Inc., priority 2019, dated 2022).

One experiment deals with T1, TNK1 (Homo sapiens, UniProt Q13470).
T1 sequence (Q13470 1-666): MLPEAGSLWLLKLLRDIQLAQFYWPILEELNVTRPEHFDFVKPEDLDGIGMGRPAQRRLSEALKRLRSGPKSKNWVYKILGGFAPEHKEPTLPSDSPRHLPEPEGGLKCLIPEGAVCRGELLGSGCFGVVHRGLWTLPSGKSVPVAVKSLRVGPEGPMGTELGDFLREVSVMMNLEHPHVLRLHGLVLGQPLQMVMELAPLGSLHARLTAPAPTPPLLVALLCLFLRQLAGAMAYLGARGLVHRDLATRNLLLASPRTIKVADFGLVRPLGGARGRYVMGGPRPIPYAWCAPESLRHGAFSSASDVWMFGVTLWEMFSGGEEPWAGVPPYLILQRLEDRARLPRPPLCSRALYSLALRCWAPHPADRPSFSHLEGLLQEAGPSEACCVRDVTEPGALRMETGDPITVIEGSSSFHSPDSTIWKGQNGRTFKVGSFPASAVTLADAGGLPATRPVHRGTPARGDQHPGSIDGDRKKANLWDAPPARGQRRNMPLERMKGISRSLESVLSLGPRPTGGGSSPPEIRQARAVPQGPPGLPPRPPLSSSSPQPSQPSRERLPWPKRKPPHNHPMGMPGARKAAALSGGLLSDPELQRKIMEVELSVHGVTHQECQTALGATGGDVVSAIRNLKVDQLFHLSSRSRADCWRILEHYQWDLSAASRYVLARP
Put plainly: RBC HotSpot Kinase Assay. Further details: purchased Reaction Biology Corp., Malvern, Pa. It counts as biochemical. To be noted: ATP 10 μM. How it is done:
The RBC HotSpot Kinase assay (Reaction Biology Corp., Malvern, Pa.) was used to evaluate the ability of test compounds to modulate (e.g., inhibit) the enzymatic activity of human TNK1 (UniProt Accession No. Q13470) in the following reaction:
Reagent: Base Reaction buffer; 20 mM Hepes (pH 7.5), 10 mM MgCl2, 1 mM EGTA, 0.02% Brij35, 0.02 mg/ml BSA, 0.1 mM Na3VO4, 2 mM DTT, 1% DMSO. Required cofactors were added individually to each kinase reaction.
Compound handling: Test compounds were dissolved in 100% DMSO to specific concentration. The serial dilution was conducted by Integra Viaflo Assist in DMSO.
1. Prepared substrate (peptide substrate, poly[Glu:Tyr] (4:1), 0.2 mg/ml; ATP 10 μM) in freshly prepared Reaction Buffer;
2. Delivered any required cofactors to the substrate solution;
3. Delivered kinase (TNK1) into the substrate solution and gently mixed;
4. Delivered compounds in 100% DMSO into the kinase reaction mixture by Acoustic technology (Echo550; nanoliter range), incubated for 20 minutes at room temperature;
5. Delivered ^33P-ATP (specific activity 10 μCi/μl) into the reaction mixture to initiate the reaction;
6. Incubated for 2 hours at room temperature;
7. Detected radioactivity by filter-binding method;
8. Kinase activity data were expressed as the percent remaining kinase activity in test samples compared to vehicle (dimethyl sulfoxide) reactions. IC50 values and curve fits were obtained using Prism (GraphPad Software).

For experiment [1], the system named is phospho-STAT5 in L540 cells. Briefly: In vitro pSTAT5 assay (ELISA) in L540 cells. It counts as cell-based. To be noted: Homo sapiens, L-540, 24 hours, normalized to cell viability, read-out: P-STAT5 Assay IC50. As for the experimental part: The L540 cell line harbors a truncating mutation in the C-terminal regulatory region of the protein. As a consequence, TNK1 in L540 cells is constitutively active in phosphorylating key proteins, including STAT5. In TNK1 wild-type conditions (e.g., K562 CML cells), STAT5 phosphorylation is achieved in a TNK1-independent fashion. As such, reductions in phospho-STAT5 signal specific to the L540 cells are a good readout of TNK1 inhibitor function.
Methods: The in vitro pSTAT5 assay was performed with STAT5 AB (pY964/699) SimpleStep ELISA Kit (Abcam No. ab176656) according to the manufacturer's protocol. Briefly, L540 cells were grown in RPMI1640 media under standard culture conditions (10% FBS with penicillin/streptomycin). To assess test compound effects, cells were plated in 96 well plates (250,000 cells/mL) and allowed to grow overnight. Cells were subsequently treated with varying concentrations of test compound for 24 hours, before being harvested and interrogated with the STAT5 AB (pY964/699) SimpleStep ELISA Kit according to the manufacturer's protocol. Phospho-STAT5 signal was normalized to cell viability, as assessed by the CellTiter-Glo assay (Promega, Cat. No. G7570) on treated cells. TNK1 inhibitor IC50s were determined using Graphpad Prism software on normalized phospho-STAT5 measurements.

The structures appear in SMILES notation. pIC50: −log10 of the molar value.

Consider `COc1cc(N2CCN(C)CC2)c(Cl)cc1Nc1ncc(Cl)c(Nc2cccnc2N2CCCC2=O)n1` [Example No. 13, 1-(3-((5-chloro-2-((5-chloro-2-methoxy-4-(4-methylpiperazin-1-yl)phenyl)amino)pyrimidin-4-yl)amino)pyridin-2-yl)pyrrolidin-2-one], for which the pIC50 (at TNK1; in experiment [1]) was more than 8.30 in each case.

On to `CN1CCN(c2c(Cl)cc(Nc3ncc(Cl)c(Nc4cccnc4N4CCCC4=O)n3)c3ccccc23)CC1` [Example No. 18, 1-(3-((5-chloro-2-((3-chloro-4-(4-methylpiperazin-1-yl)naphthalen-1-yl)amino)pyrimidin-4-yl)amino)pyridin-2-yl)pyrrolidin-2-one], for which the pIC50 (against TNK1; in experiment [1]) was more than 8.30 each time.

Take `COc1cc(N2CCN(C)CC2)c(Cl)cc1Nc1ncc(Cl)c(Nc2cccnc2N2CCNC2=O)n1` [Example No. 21, 1-(3-((5-chloro-2-((5-chloro-2-methoxy-4-(4-methylpiperazin-1-yl)phenyl)amino)pyrimidin-4-yl)amino)pyridin-2-yl)imidazolidin-2-one]: the pIC50 (against TNK1; in experiment [1]) was more than 8.30 each time.

`CN1CCN(c2ccc(Nc3ncc(Cl)c(Nc4cccnc4N4CCCC4=O)n3)cc2)CC1` [compound 1, 1-(3-((5-chloro-2-((4-(4-methylpiperazin-1-yl)phenyl)amino)pyrimidin-4-yl)amino)pyridin-2-yl)pyrrolidin-2-one]: the pIC50 (on TNK1; in experiment [1]) was more than 8.30 each time.

With `COc1cc(N2CCN(C)CC2)ccc1Nc1ncc(Cl)c(Nc2cccnc2N2CCCC2=O)n1` [compound 2, 1-(3-((5-chloro-2-((2-methoxy-4-(4-methylpiperazin-1-yl)phenyl)amino)pyrimidin-4-yl)amino)pyridin-2-yl)pyrrolidin-2-one], the pIC50 (on TNK1; in experiment [1]) was more than 8.30 each time.

Consider `CCOc1cc(N2CCN(C)CC2)ccc1Nc1ncc(Cl)c(Nc2cccnc2N(C)C)n1` [compound 3, 5-chloro-N^4-(2-(dimethylamino)pyridin-3-yl)-N^2-(2-ethoxy-4-(4-methylpiperazin-1-yl)phenyl)pyrimidine-2,4-diamine], for which the pIC50 is 7.30 to 7.82 on TNK1 and 7.30 to 8.30 in experiment [1].

With `CC(C)Oc1cc(N2CCN(C)CC2)ccc1Nc1ncc(Cl)c(Nc2cccnc2N(C)C)n1` [compound 4, 5-chloro-N^4-(2-(dimethylamino)pyridin-3-yl)-N^2-(2-isopropoxy-4-(4-methylpiperazin-1-yl)phenyl)pyrimidine-2,4-diamine], the pIC50 against TNK1 is 7.30 to 7.82; in experiment [1], less than 7.30.

As for `CN1CCN(c2ccc(Nc3ncc(Cl)c(Nc4cccnc4N(C)C)n3)cc2)CC1` [compound 5, 5-chloro-N^4-(2-(dimethylamino)pyridin-3-yl)-N^2-(4-(4-methylpiperazin-1-yl)phenyl)pyrimidine-2,4-diamine], the pIC50 at TNK1 is 7.82 to 8.30; in experiment [1], more than 8.30.

Regarding `COc1cc(N2CCN(C)CC2)c(C)cc1Nc1ncc(Cl)c(Nc2cccnc2N2CCNC2=O)n1` [compound 9, 1-(3-((5-chloro-2-((2-methoxy-5-methyl-4-(4-methylpiperazin-1-yl)phenyl)amino)pyrimidin-4-yl)amino)pyridin-2-yl)imidazolidin-2-one], the pIC50 (against TNK1; in experiment [1]) was more than 8.30 each time.

Consider `COc1cc(N2CCN(C)CC2)c(C)cc1Nc1ncc(Br)c(Nc2cccnc2N(C)C)n1` [compound 10, 5-bromo-N^4-(2-(dimethylamino)pyridin-3-yl)-N^2-(2-methoxy-5-methyl-4-(4-methylpiperazin-1-yl)phenyl)pyrimidine-2,4-diamine], for which the pIC50 (against TNK1; in experiment [1]) was more than 8.30 in each case.
